Reference: US20070021509A1, “Phosphate transport inhibitors” (priority 2001, published 2007)

tested on: phosphate uptake by rabbit intestinal Brush Border Membrane Vesicles (BBMV); test: 33PO4 uptake in rabbit intestinal BBMV (HTS), phosphate transporter inhibition in vitro; format: biochemical; conditions: Table 1, phosphate uptake, read-out: IC50
How it was run: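 BBMV from duodenal mucosa of male New Zealand White rabbits, diluted to about 0.5-2.0 mg/mL protein. Uptake buffers carried 33PO4 at 200,000 CPM/19 μL. Controls: Na uptake buffer (max), plus 100 μM KH2PO4 pH 7.4 (mid), K uptake buffer (min).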

| SMILES | IC50 [µM] |
| --- | --- |
| O=C(O)c1cc(Br)ccc1NS(=O)(=O)c1ccccc1C(F)(F)F [Compound 26] | 101 to 500 |
| O=C(O)c1cc(Br)ccc1NS(=O)(=O)c1ccc(Cl)cc1 [Compound 43] | > 1500 |
| COc1ccc(OC)c(S(=O)(=O)Nc2ccc(Br)cc2C(=O)O)c1 [Compound 35] | 101 to 500 |
| O=C(O)c1cc(Br)ccc1NS(=O)(=O)c1cccc(C(F)(F)F)c1 [Compound 16] | 101 to 500 |
| Cc1cc(C)c(S(=O)(=O)Nc2ccc(Br)cc2C(=O)O)c(C)c1 [Compound 6] | 51 to 100 |
| Cc1ccc(S(=O)(=O)Nc2ccc(Br)cc2C(=O)O)cc1[N+](=O)[O-] [Compound 9] | 51 to 100 |
| O=C(O)c1cc(Br)ccc1NS(=O)(=O)c1cccc([N+](=O)[O-])c1 [Compound 13] | 101 to 500 |
| C=Cc1ccc(S(=O)(=O)Nc2ccc(Br)cc2C(=O)O)cc1 [Compound 30] | 101 to 500 |
| O=C(O)c1cc(Br)ccc1NS(=O)(=O)c1ccc(Cl)cc1 [Compound 27] | 101 to 500 |
| O=C(O)c1cc(Br)ccc1NS(=O)(=O)c1ccc(Cl)c([N+](=O)[O-])c1 [Compound 12] | 101 to 500 |
| O=C(O)c1cc(Br)ccc1NS(=O)(=O)c1cccc(Cl)c1 [Compound 10] | 101 to 500 |
| O=C(O)c1cc(Br)ccc1NS(=O)(=O)c1ccc(OC(F)(F)F)cc1 [Compound 14] | 101 to 500 |
| O=C(O)c1cc(Br)ccc1NS(=O)(=O)c1cc(C(F)(F)F)cc(C(F)(F)F)c1 [Compound 3] | 51 to 100 |
| O=C(O)c1cc(Br)ccc1NS(=O)(=O)c1ccc(C(F)(F)F)cc1 [Compound 7] | 51 to 100 |
| O=C(O)c1cc(Br)ccc1NS(=O)(=O)c1ccc(Cl)cc1 [Compound 29] | 101 to 500 |
| O=C(O)c1cc(Br)ccc1NS(=O)(=O)c1cc(Cl)c(Cl)cc1Cl [Compound 4] | 51 to 100 |
| O=C(O)c1cc(Br)ccc1NS(=O)(=O)c1ccc(Cl)c([N+](=O)[O-])c1 [Compound 15] | 101 to 500 |
| COc1ccc(S(=O)(=O)Nc2ccc(Br)cc2C(=O)O)cc1[N+](=O)[O-] [Compound 42] | > 1500 |
| O=C(O)c1cc(Br)ccc1NS(=O)(=O)c1cccc2ccccc12 [Compound 19] | 101 to 500 |

same assay, conditions: Table 2, phosphate uptake, read-out: IC50

| SMILES | IC50 [µM] |
| --- | --- |
| O=C(Nc1ccccc1Cl)c1cc(Br)ccc1NS(=O)(=O)c1ccc(OC(F)(F)F)cc1 [Compound 50] | < 50 |
| CSc1ccc(NC(=O)c2cc(Br)ccc2NS(=O)(=O)c2ccc(OC(F)(F)F)cc2)cc1 [Compound 65] | 51 to 100 |
| O=C(c1ccc(Cl)cc1)c1cc(NC(=O)c2cc(Br)ccc2NS(=O)(=O)c2ccc(Cl)cc2)ccc1Cl [Compound 96] | > 1500 |
| COc1ccccc1NC(=O)c1cc(Br)ccc1NS(=O)(=O)c1ccc(Cl)cc1 [Compound 89] | 101 to 500 |
| O=C(NCc1cc(F)ccc1F)c1cc(Br)ccc1NS(=O)(=O)c1ccc(OC(F)(F)F)cc1 [Compound 66] | 51 to 100 |
| O=C(Nc1ccccc1Br)c1cc(Br)ccc1NS(=O)(=O)c1ccc(OC(F)(F)F)cc1 [Compound 62] | 51 to 100 |
| COc1ccc(S(=O)(=O)Nc2ccc(Br)cc2C(=O)Nc2cccc(Cl)c2C)cc1[N+](=O)[O-] [Compound 100] | 51 to 100 |
| Cc1c(Cl)cccc1NC(=O)c1cc(Br)ccc1NS(=O)(=O)c1ccc(Cl)c([N+](=O)[O-])c1 [Compound 122] | > 1500 |
| Cc1ccccc1NC(=O)c1cc(Br)ccc1NS(=O)(=O)c1ccc(Cl)c([N+](=O)[O-])c1 [Compound 121] | > 1500 |
| O=C(NC1CCCCC1)c1cc(Br)ccc1NS(=O)(=O)c1ccc(OC(F)(F)F)cc1 [Compound 75] | 101 to 500 |
| COc1ccccc1NC(=O)c1cc(Br)ccc1NS(=O)(=O)c1ccc(OC)c([N+](=O)[O-])c1 [Compound 106] | 101 to 500 |
| O=C(Nc1ccc(Cl)c(Cl)c1)c1cc(Br)ccc1NS(=O)(=O)c1ccc(Cl)c([N+](=O)[O-])c1 [Compound 110] | < 50 |
| CCCCCCCCCCc1ccc(NC(=O)c2cc(Br)ccc2NS(=O)(=O)c2ccc(OC(F)(F)F)cc2)cc1 [Compound 81] | 501 to 1000 |
| O=C(Nc1ccccc1Cl)c1cc(Br)ccc1NS(=O)(=O)c1ccc(Cl)cc1 [Compound 86] | 51 to 100 |
| CC(C)(C)c1ccc(NC(=O)c2cc(Br)ccc2NS(=O)(=O)c2ccc(OC(F)(F)F)cc2)cc1 [Compound 71] | 101 to 500 |
| O=C(Nc1ccc(Cl)cc1Cl)c1cc(Br)ccc1NS(=O)(=O)c1ccc(Cl)cc1 [Compound 85] | 51 to 100 |
| O=C(Nc1cc(Cl)ccc1Cl)c1cc(Br)ccc1NS(=O)(=O)c1ccc(Cl)cc1 [Compound 87] | 51 to 100 |

same assay, conditions: Table 3, 100 μM compound

| SMILES | % Inhib. At 100 μM [%] |
| --- | --- |
| CSc1ccc(NS(=O)(=O)c2ccc(OC(F)(F)F)cc2)cc1 [Compound 128] | 88 |
| O=C(Nc1ccccn1)c1cc(Br)ccc1NS(=O)(=O)c1ccc(OC(F)(F)F)cc1 [Compound 174] | 84 |
| O=[N+]([O-])c1ccc(NS(=O)(=O)c2ccc(OC(F)(F)F)cc2)cc1 [Compound 156] | 46 |
| O=S(=O)(Nc1ccccc1)c1ccccc1 [Compound 159] | 36 |
| O=S(=O)(Nc1c(F)cc(Br)cc1F)c1ccc(OC(F)(F)F)cc1 [Compound 151] | 54 |

same assay, conditions: Table 4, phosphate uptake, read-out: IC50

| SMILES | IC50 [µM] |
| --- | --- |
| O=C(Nc1ccccc1F)Nc1ccc(Br)cc1P(=O)(O)O [Compound 200] | 501 to 1000 |
| CC(=O)c1cccc(NC(=O)Nc2ccc(Br)cc2P(=O)(O)O)c1 [Compound 199] | 501 to 1000 |
| COc1cccc(NC(=O)Nc2ccc(Br)cc2P(=O)(O)O)c1 [Compound 203] | 501 to 1000 |
| O=C(Nc1ccc(Br)cc1P(=O)(O)O)Nc1cccc(C(F)(F)F)c1Cl [Compound 198] | 501 to 1000 |
| O=C(Nc1cc(C(F)(F)F)cc(C(F)(F)F)c1)Nc1ccc(Br)cc1P(=O)(O)O [Compound 182] | 51 to 100 |
| O=C(Nc1cccc(Cl)c1)Nc1ccc(Br)cc1P(=O)(O)O [Compound 195] | 501 to 1000 |
| O=C(Nc1cccc(C(F)(F)F)c1)Nc1ccc(Br)cc1P(=O)(O)O [Compound 178] | < 50 |
| O=C(Nc1ccc(Br)cc1P(=O)(O)O)Nc1c(F)cccc1F [Compound 204] | 1000 to 1500 |
| O=C(Nc1ccc(Br)cc1P(=O)(O)O)Nc1cccc(Cl)c1Cl [Compound 187] | 101 to 500 |

same assay, conditions: Table 5, 100 μM compound

| SMILES | % Inhib. at 100 μM [%] |
| --- | --- |
| O=C(Nc1cccc(C(F)(F)F)c1)Nc1cccc(Cl)c1Cl [Compound 215] | 96 |
| O=C(Nc1cccc(Cl)c1)Nc1cccc(C(F)(F)F)c1 [Compound 219] | 92 |
| O=C(Nc1cc(Cl)cc(Cl)c1)Nc1cccc(C(F)(F)F)c1 [Compound 217] | 95 |
| O=C(Nc1cccc(C(F)(F)F)c1)Nc1ccc(Br)cc1P(=O)(O)O [Compound 230] | 49 |
| O=C(Nc1ccc(Cl)cc1)Nc1cccc(C(F)(F)F)c1 [Compound 228] | 74 |
| CCOP(=O)(OCC)c1cc(Br)ccc1NC(=O)Nc1cccc(C(F)(F)F)c1 [Compound 226] | 77 |

same assay, conditions: Table 6, 100 μM compound

| SMILES | % Inhib. at 100 μM [%] |
| --- | --- |
| Oc1ccc(-c2cc(-c3ccco3)on2)cc1 [Compound 236] | 41 |

same assay, conditions: Table 7, phosphate uptake, read-out: IC50

| SMILES | IC50 [µM] |
| --- | --- |
| Cn1nc(-c2ccc(Oc3ccccc3)cc2)cc1-c1ccco1 [Compound 244] | > 1500 |
| Cn1nc(-c2ccc(O)cc2)cc1-c1ccco1 [Compound 242] | > 1500 |
| Cn1nc(-c2ccc(O)cc2)cc1-c1cccc(F)c1 [Compound 241] | 101 to 500 |
| COc1ccc(-c2cc(-c3cccc(F)c3)n(C)n2)cc1 [Compound 239] | 101 to 500 |

same assay, conditions: Table 9, 100 μM compound

| SMILES | % Inhib. at 100 μM [%] |
| --- | --- |
| O=C(/C=C/c1ccc(Br)cc1)c1cc(Cl)cc(Cl)c1O [Compound 249] | 50 |

same assay, conditions: Table 10, phosphate uptake, read-out: IC50

| SMILES | IC50 [µM] |
| --- | --- |
| O=C(Nc1ccc(Br)cc1)c1cc(Br)cc(Br)c1 [Compound 266] | 501 to 1000 |
| CCOP(=O)(OCC)c1cc(Br)ccc1NC(=O)c1cccc2ccccc12 [Compound 265] | 501 to 1000 |
| O=C(Nc1ccc(Br)cc1C(=O)O)c1ccc(Cl)c([N+](=O)[O-])c1 [Compound 261] | 101 to 500 |
| CCOP(=O)(OCC)c1cc(Br)ccc1NC(=O)c1ccc(OC(F)(F)F)cc1 [Compound 250] | < 50 |
| CCOP(=O)(OCC)c1cc(Br)ccc1NC(=O)c1ccc(OC(F)(F)F)cc1 [Compound 272] | > 1500 |
| O=C(Nc1ccc(Cl)c(Cl)c1)c1cc(Cl)cc(Cl)c1O [Compound 252] | 51 to 100 |
| O=C(Nc1ccc(Oc2ccc3ccccc3c2Br)c(Cl)c1)c1cc(Br)cc(Br)c1O [Compound 254] | 101 to 500 |

same assay, conditions: Table 11, phosphate uptake, read-out: IC50

| SMILES | IC50 [µM] |
| --- | --- |
| O=C(CCc1ccc(O)cc1)c1c(O)cc(O)cc1O [Compound 273] | 501 to 1000 |
| COc1cccc(C(=O)/C=C/c2ccco2)c1 [Compound 275] | 501 to 1000 |

same assay, conditions: Table 12, 100 μM compound

| SMILES | % Inhib. at 100 μM [%] |
| --- | --- |
| O=S(=O)(Cc1c(Cl)cccc1Cl)c1cc(C(F)(F)F)cc(C(F)(F)F)c1 [Compound 283] | 51 |
| O=S(=O)(Cc1ccc(Br)cc1F)c1ccc(Cl)cc1 [Compound 288] | 31 |
| O=[N+]([O-])c1ccc(CS(=O)(=O)c2ccc(F)cc2F)c(Cl)c1 [Compound 285] | 44 |

same assay, conditions: Table 13, phosphate uptake, read-out: IC50

| SMILES | IC50 [µM] |
| --- | --- |
| Nc1ccc(/C=C/c2ccc(N)cc2)cc1 [Compound 308] | > 1500 |
| Oc1ccc(/C=C/c2ccc(O)cc2)cc1 [Compound 306] | > 1500 |
| O=S(=O)(O)c1cc(NS(=O)(=O)c2cccc(Cl)c2)ccc1/C=C/c1ccc(NS(=O)(=O)c2cccc(Cl)c2)cc1S(=O)(=O)O [Compound 301] | 501 to 1000 |
| O=S(=O)(O)c1cc(NS(=O)(=O)c2cccc3ccccc23)ccc1/C=C/c1ccc(NS(=O)(=O)c2cccc3ccccc23)cc1S(=O)(=O)O [Compound 299] | 501 to 1000 |
| O=S(=O)(O)c1cc(NS(=O)(=O)c2cccc3cccnc23)ccc1/C=C/c1ccc(NS(=O)(=O)c2cccc3cccnc23)cc1S(=O)(=O)O [Compound 311] | > 1500 |
| O=S(=O)(O)c1cc(/N=N/c2ccc(O)cc2)ccc1/C=C/c1ccc(/N=N/c2ccc(O)cc2)cc1S(=O)(=O)O [Compound 292] | < 50 |
